Experimental data reported in the supplement of paper PMC5579334.

Key:
ST8814 [1] = experiment: relative IC50 (inflection point of fitted dose-response curve, CellTiter-Glo viability, 72 h; top asymptote may be below 50% inhibition); higher = less potent
Method in brief: (§1)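 For this screen, 384-well plates were preprinted with each compound at five concentrations in 10-fold steps and seeded with MPNST cell lines or primary human Schwann cells at 750–1000 cells per well. Incubation lasted 72 h at 37 °C, 5% CO2, and CellTiter-Glo ATP luminescence, scaled between vehicle and positive-control wells and averaged over duplicates where available, served as viability. Logistic fits with four parameters were applied. Relative IC50 (censored at the top concentration) and drug sensitivity score derive from these fits, and percent inhibition is at the top concentration.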

S462 = experiment: as above
Method in brief: as §1

HSC1 [2] = experiment: as above
Method in brief: as §1

HS-PSS [3] = experiment: as above
Method in brief: as §1

HSC2 [4] = experiment: as above
Method in brief: as §1

STS26T [5] = experiment: as above
Method in brief: as §1

YST-1 = experiment: as above
Method in brief: as §1

S1507-2 [6] = experiment: relative IC50 (inflection point of fitted dose-response curve, CellTox-Green cytotoxicity, 72 h; top asymptote may be below 50%); higher = less potent
Method in brief: (§2)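 MPNST cell lines and primary human Schwann cells were grown for 72 h at 37 °C in 384-well plates containing five 10-fold compound dilutions. CellTox-Green, added before seeding at a final 1:1000 dilution, gave fluorescence from DNA released by disrupted cells, and signals were scaled to vehicle and positive-control wells. Curves were fitted with a four-parameter logistic model. Drug sensitivity score and relative IC50 come from these fits, with IC50 censored at the top concentration.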

ST8814 [7] = experiment: as above
Method in brief: as §2

HSC1 [8] = experiment: as above
Method in brief: as §2

HS-PSS [9] = experiment: as above
Method in brief: as §2

HSC2 [10] = experiment: as above
Method in brief: as §2

STS26T [11] = experiment: as above
Method in brief: as §2

HS-Sch-2 = experiment: relative IC50 (inflection point of fitted dose-response curve, CellTiter-Glo viability, 72 h; top asymptote may be below 50% inhibition); higher = less potent
Method in brief: as §1

S1507-2 [12] = experiment: as above
Method in brief: as §1

Compound	relative IC50 (ST8814 [1])	relative IC50 (S462)	relative IC50 (HSC1 [2])	relative IC50 (HS-PSS [3])	relative IC50 (HSC2 [4])	relative IC50 (STS26T [5])	relative IC50 (YST-1)	relative IC50 (S1507-2 [6])	relative IC50 (ST8814 [7])	relative IC50 (HSC1 [8])	relative IC50 (HS-PSS [9])	relative IC50 (HSC2 [10])	relative IC50 (STS26T [11])	relative IC50 (HS-Sch-2)	relative IC50 (S1507-2 [12])
CCn1c(C(=O)N(C2CC2)C2CC2)cc2c3c(ncn3C)c(Nc3cc(C)n(C)n3)nc21	> 10 µM	> 10 µM	> 10 µM	> 10 µM	> 10 µM	> 10 µM	1.59 µM	> 10 µM	> 10 µM	> 10 µM	> 10 µM	> 10 µM	> 10 µM	–	–
CCCCC/C=C/C=C1/C(=O)C=C[C@@H]1C/C=C\CCCC(=O)O [15D-PGJ2]	> 0.8 µM	> 0.8 µM	> 0.8 µM	> 3 µM	> 0.8 µM	> 0.8 µM	> 3 µM	> 0.8 µM	> 0.8 µM	> 0.8 µM	> 3 µM	> 0.8 µM	> 0.8 µM	–	–
CN[C@@H](C)C(=O)N[C@H]1CN(C(=O)CC(C)C)CC[C@H]2CC[C@@H](C(=O)NC(c3ccccc3)c3ccccc3)N2C1=O [AT-406]	> 10 µM	> 10 µM	> 10 µM	–	> 10 µM	0.0972 µM	> 10 µM	0.0583 µM	> 10 µM	> 10 µM	> 10 µM	> 10 µM	0.0199 µM	–	–
CC(=O)OC[C@H]1O[C@@H]([S-])[C@H](OC(C)=O)[C@@H](OC(C)=O)[C@@H]1OC(C)=O.CCP(CC)CC.[Au+] [Auranofin]	0.779 µM	0.449 µM	0.387 µM	0.668 µM	0.462 µM	0.61 µM	0.805 µM	> 2.5 µM	–	0.516 µM	0.754 µM	0.575 µM	0.697 µM	0.362 µM	–
CC(C)(C)c1nc(-c2cccc(NS(=O)(=O)c3c(F)cccc3F)c2F)c(-c2ccnc(N)n2)s1 [Dabrafenib]	0.968 µM	0.668 µM	0.22 µM	1 µM	0.0633 µM	0.0728 µM	–	> 2.5 µM	> 2.5 µM	> 2.5 µM	> 2.5 µM	> 2.5 µM	> 2.5 µM	–	–
C#Cc1cccc(Nc2ncnc3cc(OCCOC)c(OCCOC)cc23)c1 [Erlotinib]	3.13 µM	2.31 µM	2.36 µM	2.1 µM	2.31 µM	2.06 µM	1.47 µM	> 10 µM	> 10 µM	> 10 µM	> 10 µM	> 10 µM	> 10 µM	1.55 µM	–
O=c1[nH]c(=O)n([C@H]2C[C@H](O)[C@@H](CO)O2)cc1F [Floxuridine]	0.123 µM	0.0534 µM	0.752 µM	1.48 µM	0.127 µM	0.0379 µM	0.101 µM	> 10 µM	0.729 µM	3.23 µM	> 10 µM	–	0.253 µM	0.173 µM	–
CC(C)NC[C@@H](C(=O)N1CCN(c2ncnc3c2[C@H](C)C[C@H]3O)CC1)c1ccc(Cl)cc1 [GDC-0068]	–	–	–	–	> 10 µM	0.544 µM	–	> 10 µM	> 10 µM	–	–	> 10 µM	> 10 µM	–	2.06 µM
NC(=O)NO [Hydroxyurea]	> 100 µM	> 100 µM	–	> 100 µM	–	> 100 µM	–	> 100 µM	> 100 µM	> 100 µM	> 100 µM	> 100 µM	> 100 µM	–	–
CC[C@H](Nc1ncnc2[nH]cnc12)c1nc2cccc(F)c2c(=O)n1-c1ccccc1 [Idelalisib]	–	> 10 µM	> 10 µM	> 10 µM	> 10 µM	1.54 µM	1.04 µM	> 10 µM	> 10 µM	> 10 µM	> 10 µM	0.511 µM	–	> 10 µM	–
O=P1(NCCCl)OCCCN1CCCl (configuration not stated) [Ifosfamide]	> 10 µM	> 10 µM	> 10 µM	> 10 µM	> 10 µM	> 10 µM	–	> 10 µM	> 10 µM	> 10 µM	> 10 µM	> 10 µM	> 10 µM	> 10 µM	–
Nc1cccc2c1CN(C1CCC(=O)NC1=O)C2=O (configuration not stated) [Lenalidomide]	> 10 µM	> 10 µM	–	> 100 µM	–	> 10 µM	–	> 10 µM	> 10 µM	> 10 µM	> 100 µM	1.87 µM	> 10 µM	–	–
N[C@@H](Cc1ccc(N(CCCl)CCCl)cc1)C(=O)O [Melphalan aq]	> 12.5 µM	> 12.5 µM	–	–	> 12.5 µM	> 12.5 µM	–	> 12.5 µM	> 12.5 µM	> 12.5 µM	–	> 12.5 µM	> 12.5 µM	–	–
Sc1ncnc2nc[nH]c12 [Mercaptopurine]	0.193 µM	1.46 µM	> 10 µM	–	> 10 µM	1.27 µM	–	> 10 µM	> 10 µM	> 10 µM	> 10 µM	> 10 µM	–	0.64 µM	–
CN(Cc1cnc2nc(N)nc(N)c2n1)c1ccc(C(=O)N[C@@H](CCC(=O)O)C(=O)O)cc1 [Methotrexate]	0.195 µM	0.0276 µM	> 5 µM	> 5 µM	–	0.0149 µM	0.0609 µM	> 5 µM	–	> 5 µM	> 5 µM	> 5 µM	0.314 µM	0.0892 µM	–
CC1(C)CCC(c2ccc(Cl)cc2)=C(CN2CCN(c3ccc(C(=O)NS(=O)(=O)c4ccc(N[C@H](CCN5CCOCC5)CSc5ccccc5)c(S(=O)(=O)C(F)(F)F)c4)cc3)CC2)C1 [Navitoclax]	–	–	–	> 10 µM	1.12 µM	–	0.471 µM	0.608 µM	1.5 µM	1.54 µM	> 10 µM	0.983 µM	–	0.547 µM	0.582 µM
COC(=O)c1ccc2c(c1)NC(=O)/C2=C(\Nc1ccc(N(C)C(=O)CN2CCN(C)CC2)cc1)c1ccccc1 [Nintedanib]	> 10 µM	> 10 µM	> 10 µM	3.97 µM	> 10 µM	> 10 µM	1.12 µM	> 10 µM	> 10 µM	> 10 µM	–	> 10 µM	> 10 µM	3.71 µM	–
C[C@]12C=CC(=O)C=C1CC[C@@H]1[C@@H]2[C@@H](O)C[C@@]2(C)[C@H]1CC[C@]2(O)C(=O)CO [Prednisolone]	–	> 10 µM	> 10 µM	> 10 µM	> 10 µM	> 10 µM	–	> 10 µM	> 10 µM	> 10 µM	> 10 µM	> 10 µM	> 10 µM	> 10 µM	–
C[C@]12C=CC(=O)C=C1CC[C@@H]1[C@@H]2C(=O)C[C@@]2(C)[C@H]1CC[C@]2(O)C(=O)CO [Prednisone]	> 10 µM	> 10 µM	> 10 µM	> 10 µM	> 10 µM	> 10 µM	> 10 µM	> 10 µM	> 10 µM	> 10 µM	> 10 µM	> 10 µM	> 10 µM	–	–
CC(C)(C)c1cc(NC(=O)Nc2ccc(-c3cn4c(n3)sc3cc(OCCN5CCOCC5)ccc34)cc2)no1 [Quizartinib]	–	0.179 µM	0.197 µM	> 1 µM	0.402 µM	–	0.153 µM	> 1 µM	> 1 µM	> 1 µM	> 1 µM	> 1 µM	> 1 µM	–	–
CNC(=O)c1cc(Oc2ccc(NC(=O)Nc3ccc(Cl)c(C(F)(F)F)c3)c(F)c2)ccn1 [Regorafenib]	1.34 µM	1.7 µM	2.77 µM	3.58 µM	2.05 µM	1.69 µM	1.7 µM	> 10 µM	3.16 µM	> 10 µM	> 10 µM	> 10 µM	–	3.57 µM	–
CS(=O)(=O)c1ccc(C2=C(c3ccccc3)C(=O)OC2)cc1 [Rofecoxib]	> 10 µM	> 10 µM	> 10 µM	> 10 µM	> 10 µM	> 10 µM	> 10 µM	> 10 µM	> 10 µM	> 10 µM	> 10 µM	> 10 µM	> 10 µM	> 10 µM	–
CCS(=O)(=O)c1cccc(-c2cc(C(=O)NC3CCN(C)CC3)c(C)c3[nH]c4ncc(C)cc4c23)c1 [TAK-901]	0.267 µM	0.122 µM	0.111 µM	0.15 µM	0.0725 µM	0.112 µM	0.0633 µM	> 1 µM	0.134 µM	–	> 1 µM	0.183 µM	0.0623 µM	0.327 µM	–
C=CC[C@@H]1/C=C(\C)C[C@H](C)C[C@H](OC)[C@H]2O[C@@](O)(C(=O)C(=O)N3CCCC[C@H]3C(=O)O[C@H](/C(C)=C/[C@@H]3CC[C@@H](O)[C@H](OC)C3)[C@H](C)[C@@H](O)CC1=O)[C@H](C)C[C@@H]2OC [Tacrolimus]	–	> 10 µM	–	> 10 µM	> 10 µM	> 10 µM	> 10 µM	> 10 µM	> 10 µM	> 10 µM	> 10 µM	> 10 µM	> 10 µM	> 10 µM	–
COc1cc2c(N3CCN(C(=O)Nc4ccc(OC(C)C)cc4)CC3)ncnc2cc1OCCCN1CCCCC1 [Tandutinib]	> 1 µM	> 1 µM	> 1 µM	–	> 1 µM	> 1 µM	> 1 µM	> 1 µM	> 1 µM	> 1 µM	> 1 µM	> 1 µM	> 1 µM	> 1 µM	–
Cn1nnc2c(C(N)=O)ncn2c1=O [Temozolomide]	–	> 10 µM	> 10 µM	–	> 10 µM	> 10 µM	–	> 10 µM	> 10 µM	> 10 µM	> 100 µM	> 10 µM	> 10 µM	–	–
O=C1CCC(N2C(=O)c3ccccc3C2=O)C(=O)N1 (configuration not stated) [Thalidomide]	–	> 10 µM	> 10 µM	> 10 µM	> 10 µM	> 10 µM	> 10 µM	> 10 µM	> 10 µM	> 10 µM	> 10 µM	> 10 µM	–	–	–
O=C(c1ccc(C(=O)N2CCC(N3CCCC3)CC2)c(Nc2ccccc2)c1)N1CCC(N2CCCC2)CC1 [UNC1215]	–	> 30 µM	> 30 µM	–	> 30 µM	> 30 µM	> 30 µM	> 30 µM	> 30 µM	> 30 µM	> 30 µM	> 30 µM	–	–	–
CCCS(=O)(=O)Nc1ccc(F)c(C(=O)c2c[nH]c3ncc(-c4ccc(Cl)cc4)cc23)c1F [Vemurafenib]	> 10 µM	> 10 µM	1.74 µM	3.73 µM	1.46 µM	1.84 µM	> 10 µM	> 10 µM	–	> 10 µM	> 10 µM	> 10 µM	1.17 µM	3.92 µM	–
